In PubChem BioAssay AID2060508 (Molecular Pharmacology Branch, DTP, NCI, 2025) one finds viability, T/C data, which are given here for 4 compounds.
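Further: spheroids exposed to compounds for seven days; 100% = DMSO vehicle control viability.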

One assay relates to 454973-116-R2-J3-PDC spheroids, viability, % test/control. The assay can be described thus: Anticancer human tumor 454973-116-R2-J3-PDC patient-derived pancreatic carcinoma cell line growth inhibition [GQUAD]. As to conditions: second compound 0.316 µM; first compound 1 µM; stronger effect = lower value; spheroids with HUVEC and MSC. A digest of the protocol:
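Viability of tumor cells grown as complex spheroids with endothelial and stromal cells, exposed to drug combinations. Top concentration at or near clinical Cmax (else 10 microM), diluted in half-log increments.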
`C=CCn1c(=O)c2cnc(Nc3ccc(N4CCN(C)CC4)cc3)nc2n1-c1cccc(C(C)(C)O)n1` + Cc1[nH]c2ccc(F)cc2c1-c1nc2c3cccnc3c3ncccc3c2[nH]1: the viability, T/C was 16.7%.

As to `CC(C)(O)C1CCC(Nc2ccc3ncc(-c4cccc(C(F)(F)F)c4)n3n2)CC1` (configuration not stated) + Cc1[nH]c2ccc(F)cc2c1-c1nc2c3cccnc3c3ncccc3c2[nH]1, the viability, T/C is 78.4%.

Take `COc1ncnc(C2CC2)c1-c1ncc2cnn(Cc3ccc(-c4nc(C(F)(F)F)cn4C(C)C)cc3)c2n1` + Cc1[nH]c2ccc(F)cc2c1-c1nc2c3cccnc3c3ncccc3c2[nH]1: the viability, T/C is 120%.

For `O=C(NO)c1cnc(N2CCN(S(=O)(=O)c3ccc4ccccc4c3)CC2)nc1` + Cc1[nH]c2ccc(F)cc2c1-c1nc2c3cccnc3c3ncccc3c2[nH]1, the viability, T/C is 10%.

Staying with this assay, now noted: second compound 0.316 µM; first compound 3.16 µM; stronger effect = lower value; spheroids with HUVEC and MSC.
Consider `C=CCn1c(=O)c2cnc(Nc3ccc(N4CCN(C)CC4)cc3)nc2n1-c1cccc(C(C)(C)O)n1` + Cc1[nH]c2ccc(F)cc2c1-c1nc2c3cccnc3c3ncccc3c2[nH]1, for which the viability, T/C was 7.33%.

As to `CC(C)(O)C1CCC(Nc2ccc3ncc(-c4cccc(C(F)(F)F)c4)n3n2)CC1` (configuration not stated) + Cc1[nH]c2ccc(F)cc2c1-c1nc2c3cccnc3c3ncccc3c2[nH]1, the viability, T/C was 18.3%.

Regarding `COc1ncnc(C2CC2)c1-c1ncc2cnn(Cc3ccc(-c4nc(C(F)(F)F)cn4C(C)C)cc3)c2n1` + Cc1[nH]c2ccc(F)cc2c1-c1nc2c3cccnc3c3ncccc3c2[nH]1, the viability, T/C is 105%.

As to `O=C(NO)c1cnc(N2CCN(S(=O)(=O)c3ccc4ccccc4c3)CC2)nc1` + Cc1[nH]c2ccc(F)cc2c1-c1nc2c3cccnc3c3ncccc3c2[nH]1, the viability, T/C is 0.1%.

The assay is the same for the next values; noted with them: second compound 0.316 µM; first compound 10 µM; stronger effect = lower value; spheroids with HUVEC and MSC.
Consider `C=CCn1c(=O)c2cnc(Nc3ccc(N4CCN(C)CC4)cc3)nc2n1-c1cccc(C(C)(C)O)n1` + Cc1[nH]c2ccc(F)cc2c1-c1nc2c3cccnc3c3ncccc3c2[nH]1, for which the viability, T/C is 12.1%.

As for `CC(C)(O)C1CCC(Nc2ccc3ncc(-c4cccc(C(F)(F)F)c4)n3n2)CC1` (configuration not stated) + Cc1[nH]c2ccc(F)cc2c1-c1nc2c3cccnc3c3ncccc3c2[nH]1, the viability, T/C was 31.6%.

With `COc1ncnc(C2CC2)c1-c1ncc2cnn(Cc3ccc(-c4nc(C(F)(F)F)cn4C(C)C)cc3)c2n1` + Cc1[nH]c2ccc(F)cc2c1-c1nc2c3cccnc3c3ncccc3c2[nH]1, the viability, T/C is 98.6%.

Take `O=C(NO)c1cnc(N2CCN(S(=O)(=O)c3ccc4ccccc4c3)CC2)nc1` + Cc1[nH]c2ccc(F)cc2c1-c1nc2c3cccnc3c3ncccc3c2[nH]1: the viability, T/C was 1.14%.

Still in this assay, the particulars now being: second compound 1 µM; first compound 0.0316 µM; stronger effect = lower value; spheroids with HUVEC and MSC.
Regarding `C=CCn1c(=O)c2cnc(Nc3ccc(N4CCN(C)CC4)cc3)nc2n1-c1cccc(C(C)(C)O)n1` + Cc1[nH]c2ccc(F)cc2c1-c1nc2c3cccnc3c3ncccc3c2[nH]1, the viability, T/C is 111%.

As to `CC(C)(O)C1CCC(Nc2ccc3ncc(-c4cccc(C(F)(F)F)c4)n3n2)CC1` (configuration not stated) + Cc1[nH]c2ccc(F)cc2c1-c1nc2c3cccnc3c3ncccc3c2[nH]1, the viability, T/C is 98.2%.

Take `COc1ncnc(C2CC2)c1-c1ncc2cnn(Cc3ccc(-c4nc(C(F)(F)F)cn4C(C)C)cc3)c2n1` + Cc1[nH]c2ccc(F)cc2c1-c1nc2c3cccnc3c3ncccc3c2[nH]1: the viability, T/C is 103%.

`O=C(NO)c1cnc(N2CCN(S(=O)(=O)c3ccc4ccccc4c3)CC2)nc1` + Cc1[nH]c2ccc(F)cc2c1-c1nc2c3cccnc3c3ncccc3c2[nH]1: the viability, T/C is 89.6%.

The same assay, now with this note: second compound 1 µM; first compound 0.1 µM; stronger effect = lower value; spheroids with HUVEC and MSC.
With `C=CCn1c(=O)c2cnc(Nc3ccc(N4CCN(C)CC4)cc3)nc2n1-c1cccc(C(C)(C)O)n1` + Cc1[nH]c2ccc(F)cc2c1-c1nc2c3cccnc3c3ncccc3c2[nH]1, the viability, T/C was 96.2%.

As for `CC(C)(O)C1CCC(Nc2ccc3ncc(-c4cccc(C(F)(F)F)c4)n3n2)CC1` (configuration not stated) + Cc1[nH]c2ccc(F)cc2c1-c1nc2c3cccnc3c3ncccc3c2[nH]1, the viability, T/C is 95.6%.

`COc1ncnc(C2CC2)c1-c1ncc2cnn(Cc3ccc(-c4nc(C(F)(F)F)cn4C(C)C)cc3)c2n1` + Cc1[nH]c2ccc(F)cc2c1-c1nc2c3cccnc3c3ncccc3c2[nH]1: the viability, T/C is 99.3%.

Consider `O=C(NO)c1cnc(N2CCN(S(=O)(=O)c3ccc4ccccc4c3)CC2)nc1` + Cc1[nH]c2ccc(F)cc2c1-c1nc2c3cccnc3c3ncccc3c2[nH]1, for which the viability, T/C is 92.1%.

Staying with this assay, now noted: second compound 1 µM; first compound 0.316 µM; stronger effect = lower value; spheroids with HUVEC and MSC.
For the compound `C=CCn1c(=O)c2cnc(Nc3ccc(N4CCN(C)CC4)cc3)nc2n1-c1cccc(C(C)(C)O)n1` + Cc1[nH]c2ccc(F)cc2c1-c1nc2c3cccnc3c3ncccc3c2[nH]1, the viability, T/C was 63.4%.

As to `CC(C)(O)C1CCC(Nc2ccc3ncc(-c4cccc(C(F)(F)F)c4)n3n2)CC1` (configuration not stated) + Cc1[nH]c2ccc(F)cc2c1-c1nc2c3cccnc3c3ncccc3c2[nH]1, the viability, T/C is 95.5%.

In the case of `COc1ncnc(C2CC2)c1-c1ncc2cnn(Cc3ccc(-c4nc(C(F)(F)F)cn4C(C)C)cc3)c2n1` + Cc1[nH]c2ccc(F)cc2c1-c1nc2c3cccnc3c3ncccc3c2[nH]1, the viability, T/C is 105%.

For the compound `O=C(NO)c1cnc(N2CCN(S(=O)(=O)c3ccc4ccccc4c3)CC2)nc1` + Cc1[nH]c2ccc(F)cc2c1-c1nc2c3cccnc3c3ncccc3c2[nH]1, the viability, T/C is 73%.

Still in this assay, the particulars now being: second compound 1 µM; first compound 1 µM; stronger effect = lower value; spheroids with HUVEC and MSC.
Turning to `C=CCn1c(=O)c2cnc(Nc3ccc(N4CCN(C)CC4)cc3)nc2n1-c1cccc(C(C)(C)O)n1` + Cc1[nH]c2ccc(F)cc2c1-c1nc2c3cccnc3c3ncccc3c2[nH]1, the viability, T/C was 18.3%.

For `CC(C)(O)C1CCC(Nc2ccc3ncc(-c4cccc(C(F)(F)F)c4)n3n2)CC1` (configuration not stated) + Cc1[nH]c2ccc(F)cc2c1-c1nc2c3cccnc3c3ncccc3c2[nH]1, the viability, T/C was 67.1%.

For the compound `COc1ncnc(C2CC2)c1-c1ncc2cnn(Cc3ccc(-c4nc(C(F)(F)F)cn4C(C)C)cc3)c2n1` + Cc1[nH]c2ccc(F)cc2c1-c1nc2c3cccnc3c3ncccc3c2[nH]1, the viability, T/C is 106%.

Turning to `O=C(NO)c1cnc(N2CCN(S(=O)(=O)c3ccc4ccccc4c3)CC2)nc1` + Cc1[nH]c2ccc(F)cc2c1-c1nc2c3cccnc3c3ncccc3c2[nH]1, the viability, T/C is 8.33%.

The assay is the same for the next values; noted with them: second compound 1 µM; first compound 3.16 µM; stronger effect = lower value; spheroids with HUVEC and MSC.
For `C=CCn1c(=O)c2cnc(Nc3ccc(N4CCN(C)CC4)cc3)nc2n1-c1cccc(C(C)(C)O)n1` + Cc1[nH]c2ccc(F)cc2c1-c1nc2c3cccnc3c3ncccc3c2[nH]1, the viability, T/C is 6.95%.

As for `CC(C)(O)C1CCC(Nc2ccc3ncc(-c4cccc(C(F)(F)F)c4)n3n2)CC1` (configuration not stated) + Cc1[nH]c2ccc(F)cc2c1-c1nc2c3cccnc3c3ncccc3c2[nH]1, the viability, T/C is 23.8%.

For the compound `COc1ncnc(C2CC2)c1-c1ncc2cnn(Cc3ccc(-c4nc(C(F)(F)F)cn4C(C)C)cc3)c2n1` + Cc1[nH]c2ccc(F)cc2c1-c1nc2c3cccnc3c3ncccc3c2[nH]1, the viability, T/C was 92.3%.

`O=C(NO)c1cnc(N2CCN(S(=O)(=O)c3ccc4ccccc4c3)CC2)nc1` + Cc1[nH]c2ccc(F)cc2c1-c1nc2c3cccnc3c3ncccc3c2[nH]1: the viability, T/C is 0.1%.

The same assay, now with this note: second compound 1 µM; first compound 10 µM; stronger effect = lower value; spheroids with HUVEC and MSC.
With `C=CCn1c(=O)c2cnc(Nc3ccc(N4CCN(C)CC4)cc3)nc2n1-c1cccc(C(C)(C)O)n1` + Cc1[nH]c2ccc(F)cc2c1-c1nc2c3cccnc3c3ncccc3c2[nH]1, the viability, T/C was 12.4%.

As to `CC(C)(O)C1CCC(Nc2ccc3ncc(-c4cccc(C(F)(F)F)c4)n3n2)CC1` (configuration not stated) + Cc1[nH]c2ccc(F)cc2c1-c1nc2c3cccnc3c3ncccc3c2[nH]1, the viability, T/C is 22.8%.

Consider `COc1ncnc(C2CC2)c1-c1ncc2cnn(Cc3ccc(-c4nc(C(F)(F)F)cn4C(C)C)cc3)c2n1` + Cc1[nH]c2ccc(F)cc2c1-c1nc2c3cccnc3c3ncccc3c2[nH]1, for which the viability, T/C was 98.9%.

Consider `O=C(NO)c1cnc(N2CCN(S(=O)(=O)c3ccc4ccccc4c3)CC2)nc1` + Cc1[nH]c2ccc(F)cc2c1-c1nc2c3cccnc3c3ncccc3c2[nH]1, for which the viability, T/C is 0.86%.

The same assay, now with this note: second compound 3.16 µM; first compound 0.0316 µM; stronger effect = lower value; spheroids with HUVEC and MSC.
Consider `C=CCn1c(=O)c2cnc(Nc3ccc(N4CCN(C)CC4)cc3)nc2n1-c1cccc(C(C)(C)O)n1` + Cc1[nH]c2ccc(F)cc2c1-c1nc2c3cccnc3c3ncccc3c2[nH]1, for which the viability, T/C is 101%.

Take `CC(C)(O)C1CCC(Nc2ccc3ncc(-c4cccc(C(F)(F)F)c4)n3n2)CC1` (configuration not stated) + Cc1[nH]c2ccc(F)cc2c1-c1nc2c3cccnc3c3ncccc3c2[nH]1: the viability, T/C is 95.1%.

Consider `COc1ncnc(C2CC2)c1-c1ncc2cnn(Cc3ccc(-c4nc(C(F)(F)F)cn4C(C)C)cc3)c2n1` + Cc1[nH]c2ccc(F)cc2c1-c1nc2c3cccnc3c3ncccc3c2[nH]1, for which the viability, T/C was 99.2%.

`O=C(NO)c1cnc(N2CCN(S(=O)(=O)c3ccc4ccccc4c3)CC2)nc1` + Cc1[nH]c2ccc(F)cc2c1-c1nc2c3cccnc3c3ncccc3c2[nH]1: the viability, T/C was 105%.

The assay is the same for the next values; noted with them: second compound 3.16 µM; first compound 0.1 µM; stronger effect = lower value; spheroids with HUVEC and MSC.
Take `C=CCn1c(=O)c2cnc(Nc3ccc(N4CCN(C)CC4)cc3)nc2n1-c1cccc(C(C)(C)O)n1` + Cc1[nH]c2ccc(F)cc2c1-c1nc2c3cccnc3c3ncccc3c2[nH]1: the viability, T/C was 98.6%.

Turning to `CC(C)(O)C1CCC(Nc2ccc3ncc(-c4cccc(C(F)(F)F)c4)n3n2)CC1` (configuration not stated) + Cc1[nH]c2ccc(F)cc2c1-c1nc2c3cccnc3c3ncccc3c2[nH]1, the viability, T/C is 98.8%.

As usually defined, the viability, T/C is the result in the treated group divided by that in the control group, in per cent.
